# Read-outs that look alike come from different tables or passages of the source.
# Columns and labels:
# [1] = Plasma pharmacokinetics in mice after subcutaneous administration; format: in vivo, male C57BL/6 mice; conditions: SC 10 mg/kg
# Excerpt: Animals. […] Four mice were housed in each cage. […] All animals were provided laboratory rodent diet. […] Animals were randomly assigned to treatment groups.
# [2] = test system: monoamine oxidase A and B (MAO-A and MAO-B); assay: Stability in the presence of monoamine oxidases (human liver mitochondria preparation); parameters: half-life / microsomal CLint: dose or concentration left out as unconfirmed; conditions: for stability in the presence of MAO (in words): human liver mitochondria preparation; for Remaining (t = 60 min) / half-life / microsomal CLint: human liver mitochondria; for half-life / microsomal CLint: human, pH 7.4
# Procedure: Liver Mitochondria Incubations. Human liver mitochondria (Xenotech H0610.M) were used.
# [3] = biological target: T1, 5-HT2A (Homo sapiens, UniProt P28223); assay: 5-HT2A receptor radioligand binding ([3H]ketanserin)
# T1 sequence (P28223 whole entry): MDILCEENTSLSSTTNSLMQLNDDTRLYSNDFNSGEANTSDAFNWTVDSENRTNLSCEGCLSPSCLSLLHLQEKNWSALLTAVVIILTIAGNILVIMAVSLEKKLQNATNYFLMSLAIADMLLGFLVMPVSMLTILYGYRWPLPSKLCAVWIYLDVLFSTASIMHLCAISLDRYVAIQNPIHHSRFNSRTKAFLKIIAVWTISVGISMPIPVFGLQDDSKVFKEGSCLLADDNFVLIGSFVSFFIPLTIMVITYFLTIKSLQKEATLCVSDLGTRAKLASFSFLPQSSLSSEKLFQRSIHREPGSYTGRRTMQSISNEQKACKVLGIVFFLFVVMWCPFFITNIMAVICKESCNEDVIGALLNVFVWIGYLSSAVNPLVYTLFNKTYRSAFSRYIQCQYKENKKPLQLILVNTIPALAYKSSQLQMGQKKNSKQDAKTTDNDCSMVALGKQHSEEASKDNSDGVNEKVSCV
# Procedure: The binding affinities of disclosed compounds at the ketanserin binding site of the 5-HT2A receptor were determined in radioligand binding experiments.
# Method. Affinity of the test compounds for the 5-HT2A receptor was determined in radioligand binding experiments with [^3H]ketanserin by WuXi AppTec (Hong Kong) Limited, using methods adapted from the literature and under conditions described in Table 4.
# [4] = biological target: T2, 5-HT2B (Homo sapiens, UniProt P41595); assay: FLIPR Ca2+ flux agonist assay at 5-HT2B; format: cell-based; conditions: for 5-HT2B % Act @ Max Dose: HEK293, max dose
# T2 construct: host or cells: HEK293
# T2 sequence (P41595 whole entry, species assumed): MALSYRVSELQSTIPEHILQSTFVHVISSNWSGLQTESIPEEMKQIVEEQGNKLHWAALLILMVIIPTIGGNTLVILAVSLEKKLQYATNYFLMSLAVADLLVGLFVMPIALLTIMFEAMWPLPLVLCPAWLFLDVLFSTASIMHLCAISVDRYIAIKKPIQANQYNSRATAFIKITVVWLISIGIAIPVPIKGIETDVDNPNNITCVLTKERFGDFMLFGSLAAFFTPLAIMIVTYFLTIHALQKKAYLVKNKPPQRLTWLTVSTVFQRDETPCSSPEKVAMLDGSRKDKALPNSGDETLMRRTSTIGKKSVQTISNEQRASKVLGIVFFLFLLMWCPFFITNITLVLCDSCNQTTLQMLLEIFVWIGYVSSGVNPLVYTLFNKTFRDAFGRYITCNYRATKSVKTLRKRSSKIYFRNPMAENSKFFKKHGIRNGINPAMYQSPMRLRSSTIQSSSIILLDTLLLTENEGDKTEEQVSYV
# [5] = biological target: T3, 5-HT1A (Homo sapiens, UniProt P08908); assay: FLIPR Ca2+ flux agonist assay at 5-HT1A; format: cell-based; conditions: for 5-HT1A % Act @ Max Dose: Ca2+ flux, CHO cells
# T3 construct: host or cells: CHO cells
# T3 sequence (P08908 1-422): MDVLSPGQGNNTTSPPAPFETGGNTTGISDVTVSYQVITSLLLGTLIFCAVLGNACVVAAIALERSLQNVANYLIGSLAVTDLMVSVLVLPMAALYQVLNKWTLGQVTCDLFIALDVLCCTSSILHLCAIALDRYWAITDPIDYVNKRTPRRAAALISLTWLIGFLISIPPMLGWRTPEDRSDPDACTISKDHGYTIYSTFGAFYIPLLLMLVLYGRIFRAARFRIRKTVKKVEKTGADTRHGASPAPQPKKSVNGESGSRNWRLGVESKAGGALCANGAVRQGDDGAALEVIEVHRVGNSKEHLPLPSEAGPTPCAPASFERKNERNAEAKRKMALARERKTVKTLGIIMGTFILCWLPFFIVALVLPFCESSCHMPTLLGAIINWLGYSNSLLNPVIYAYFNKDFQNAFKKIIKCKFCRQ
# [6] = Stability in mouse brain homogenate; format: in vitro ADME, male CD-1 mice; conditions: for half-life at 1 µM: male, CD-1; for half-life at 1 µM / % Compound Remaining (after 120 min): mouse brain homogenate, 37° C., 1 μM
# [7] = Stability in rat brain homogenate; format: in vitro ADME, male Sprague Dawley rats; conditions: for half-life at 1 µM: male, Sprague Dawley; for half-life at 1 µM / % Compound Remaining (after 120 min): rat brain homogenate, 37° C., 1 μM
# [8] = test system: rat synaptosomes; assay: Serotonin (5-HT) release from rat synaptosomes; format: biochemical, Male Sprague-Dawley rats
# Procedure: Disclosed compounds were assessed for their ability to release serotonin (5-HT) from […] (Table 9). Potency and efficacy for 5-HT release varied substantially depending on the specific compound. […] However, there was also substantial variability among 4-hydroxy compounds.
# Synaptosome 5-HT Release Assay. Synaptosome release assays were conducted according to modifications of previously described procedures (Partilla et al. (2016). Interrogating the Activity of Ligands at Monoamine Transporters in Rat Brain Synaptosomes. In Neurotransmitter Transporters (pp. 41-52). Springer.). Briefly, synaptosomes were prepared from rat brains. Male Sprague-Dawley rats were rendered unconscious with CO2 and their brains were immediately removed. The cerebella were discarded and the whole brains (minus striatum) were placed in ice-cold 0.32 M sucrose (10 mL per brain) and gently homogenized by hand. The homogenate of each brain was centrifuged at 1,000×g at 4° C. for 10 mins and the resulting supernatant was diluted with ice-cold 0.32 M sucrose to a total volume of 10 mL to provide the synaptosome solution. Synaptosomes were then preloaded with 5 nM [^3H]5-HT in the presence of selective uptake inhibitors of DAT (50 nM GBR12935), NET (100 nM nomifensine), and VMAT2 (1 μM reserpine) in Krebs phosphate buffer (KPB). The incubations were allowed to reach equilibrium for 2 h at 25° C. For the release reactions, 425 μL of preloaded synaptosomes were added to test tubes containing 75 μL of test drugs diluted in KPB containing 1 mg/mL BSA. After 10 mins, the release reaction was stopped using a cell harvester by rapid vacuum filtration over GF/B filter paper presoaked in wash buffer (10 mM Tris-HCl, pH 7.4, 150 mM NaCl) and the filters were washed with additional wash buffer. Filters were dried for 1 h at 60° C. and retained radioactivity was quantified using a MicroBeta 2 liquid scintillation counter. The amount of retained radioactivity was inversely proportional to the extent of release.
# [9] = biological target: T1, 5-HT2A; assay: FLIPR Ca2+ flux agonist assay at 5-HT2A; format: cell-based; parameters: host or cells: HEK293; conditions: for 5-HT2A % Act @ Max Dose: HEK293, max dose
# [10] = Metabolic stability in human liver microsomes (HLM); parameters: microsomal CLint / half-life: dose or concentration left out as unconfirmed; conditions: both, human, pooled human liver microsomes, pH 7.4
# [11] = biological target: T4, 5-HT2C receptor (Homo sapiens, UniProt P28335); assay: cell-based; format: cell-based; conditions: Ca2+ flux
# T4 sequence (P28335 33-458): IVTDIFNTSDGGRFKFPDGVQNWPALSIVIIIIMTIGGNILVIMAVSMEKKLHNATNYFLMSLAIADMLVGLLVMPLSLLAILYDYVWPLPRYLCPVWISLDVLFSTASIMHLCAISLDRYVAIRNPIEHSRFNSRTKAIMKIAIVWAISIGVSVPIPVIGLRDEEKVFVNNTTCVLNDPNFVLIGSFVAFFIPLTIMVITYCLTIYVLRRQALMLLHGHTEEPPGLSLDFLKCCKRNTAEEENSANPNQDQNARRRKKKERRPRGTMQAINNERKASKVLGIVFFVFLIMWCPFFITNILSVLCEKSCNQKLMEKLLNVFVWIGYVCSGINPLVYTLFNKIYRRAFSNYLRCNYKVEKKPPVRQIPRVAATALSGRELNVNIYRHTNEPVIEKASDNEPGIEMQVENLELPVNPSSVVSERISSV
# [12] = biological target: T4, 5-HT2C receptor; assay: 5-HT2C receptor radioligand binding ([3H]mesulergine); conditions: for Ki: HEK293 stable cell line, 2 nM [3H]mesulergine; for binding to the 5-HT2C receptor (in words): compared with 5-HT2A receptor binding
# Procedure: The binding affinities of disclosed compounds at the mesulergine binding site of the 5-HT2C receptor were determined in radioligand binding experiments.
# Method. Affinity of the test compounds for the 5-HT2C receptor was determined in radioligand binding experiments with [^3H]mesulergine by WuXi AppTec (Hong Kong) Limited, using methods adapted from the literature and under conditions described in Table 11.
# [13] = mouse, plasma, male C57BL/6 mice
# [14] = HEK293 stable cell line, 1 nM [3H]ketanserin, read-out: 5-HT2A Ki (nM) ([3H]Ketanserin)
smiles,measurement,setting,value
"Oc1cccc2[nH]cc(CCNC3CC3)c12 [Compound 4, 3-(2-(cyclopropylamino)ethyl)-1H-indol-4-ol]",peak plasma concentration compared with 5-F-DMT (in words),[1]; mice,much higher peak concentrations than 5-F-DMT
same,AUC(0-t),[1]; [13],665 ng·h/mL
same,Cmax,[1]; [13],1220 ng/mL
same,half-life,[1]; [13],0.62 h
same,Tmax,"[1]; mouse, plasma, male C57BL/6 mice, read-out: Tmax",0.25 h
same,stability in the presence of MAO (in words),[2],intermediate stability
same,Remaining (t = 60 min),[2],72.7%
same,half-life,[2],1.91 h
same,microsomal CLint,[2],20.2 µL/min/mg
same,Ki,[3],339 nM
same,agonism at 5-HT2B (in words),[4]; Ca2+ flux,did not
same,5-HT2B % Act @ Max Dose,[4]; Ca2+ flux,4.08%
same,EC50,[5],6560 nM
same,5-HT1A % Act @ Max Dose,[5],58.72%
same,stability in mouse brain homogenate (in words),[6],intermediate stability
same,half-life at 1 µM,[6],0.883 h
same,% Compound Remaining (after 120 min),[6],19.4%
same,stability in rat brain homogenate (in words),[7],intermediate stability
same,half-life at 1 µM,[7],1.05 h
same,% Compound Remaining (after 120 min),[7],25.2%
same,EC50,[8]; rat synaptosomes preloaded with [3H]5-HT,1250 nM
same,% Release @ Max Dose (10 μM),"[8]; rat synaptosomes, 10 μM",38.87%
same,EC50,"[9]; Ca2+ flux, HEK293, read-out: 5-HT2A EC50",8.7 nM
same,half-life,[10],1.36 h
same,microsomal CLint,[10],17 µL/min/mg
"CC(C)n1cc(CCN(C)C)c2c(O)cc(F)cc21 [Compound 10, 3-(2-(dimethylamino)ethyl)-6-fluoro-1-isopropyl-1H-indol-4-ol]",stability in the presence of MAO (in words),[2],intermediate stability
same,Remaining (t = 60 min),[2],55.7%
same,half-life,[2],1.31 h
same,microsomal CLint,[2],29.4 µL/min/mg
same,Ki,[3]; [14],1190 nM
same,EC50,[4],> 10000 nM
same,5-HT2B % Act @ Max Dose,[4]; Ca2+ flux,1.99%
same,EC50,[11],30.1 nM
same,agonism at 5-HT2C (in words),[11],potent partial agonism
same,5-HT2C % Act @ Max Dose,[11],43.06%
same,EC50,[5],> 100000 nM
same,5-HT1A % Act @ Max Dose,[5],1.85%
same,half-life at 1 µM,[6],> 4.82 h
same,% Compound Remaining (after 120 min),[6],80.9%
same,half-life at 1 µM,[7],4.49 h
same,% Compound Remaining (after 120 min),[7],71.4%
same,Ki,[12],10.5 nM
same,binding to the 5-HT2C receptor (in words),[12],potent binding to the 5-HT2C receptor
same,EC50,[9],> 1000 nM
same,5-HT2A % Act @ Max Dose,[9]; Ca2+ flux,1.28%
same,half-life,[10],1.78 h
same,microsomal CLint,[10],12.9 µL/min/mg
"CNCCc1cn(C(C)C)c2cc(F)cc(O)c12 [Compound 12, 6-fluoro-1-isopropyl-3-(2-(methylamino)ethyl)-1H-indol-4-ol]",Remaining (t = 60 min),[2],104.0%
same,half-life,[2],> 2.42 h
same,microsomal CLint,[2],< 15.9 µL/min/mg
same,Ki,[3]; [14],> 1230 nM
same,EC50,[4],> 10000 nM
same,5-HT2B % Act @ Max Dose,[4]; Ca2+ flux,1.74%
same,EC50,[11],25.3 nM
same,agonism at 5-HT2C (in words),[11],potent partial agonism
same,5-HT2C % Act @ Max Dose,[11],57.17%
same,EC50,[5],> 100000 nM
same,5-HT1A % Act @ Max Dose,[5],3.96%
same,half-life at 1 µM,[6],4.39 h
same,% Compound Remaining (after 120 min),[6],72.3%
same,half-life at 1 µM,[7],4.14 h
same,% Compound Remaining (after 120 min),[7],70.4%
same,Ki,[12],30.8 nM
same,binding to the 5-HT2C receptor (in words),[12],potent binding to the 5-HT2C receptor
same,EC50,[9],> 1000 nM
same,5-HT2A % Act @ Max Dose,[9]; Ca2+ flux,10.55%
same,half-life,[10],> 2.42 h
same,microsomal CLint,[10],< 9.6 µL/min/mg

# From patent publication US20260234107A1, “TRYPTAMINES AND METHODS OF TREATING MOOD DISORDERS” (priority 2022, published 2026)
